The results in this text go back to patent publication US12258328B2, “6-membered heteroaryl-containing aminopyridine compounds as EGFR inhibitors” (YUHAN CORPORATION, priority 2021, dated 2025).

Where two headings read alike, the source gives them in different places. Where only a bound is given, the exact number is not on record here.

Test [1] deals with EGFR L858R/T790M/C797S (Homo sapiens, UniProt P00533, C797S/L858R/T790M). Description: Biochemical EGFR kinase assay (Lance Ultra TR-FRET), triple mutant L858R/T790M/C797S. The gist of the method: (§1)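 Kinase activity is measured by TR-FRET phosphopeptide detection. Compounds span 0.003 μM to 10 μM; the 1 h reaction at room temperature is quenched with EDTA, then labelled antibody (2 nM) is incubated 60 min before reading.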
Sequence of EGFR L858R/T790M/C797S (P00533 25-1210 T790M/C797S/L858R): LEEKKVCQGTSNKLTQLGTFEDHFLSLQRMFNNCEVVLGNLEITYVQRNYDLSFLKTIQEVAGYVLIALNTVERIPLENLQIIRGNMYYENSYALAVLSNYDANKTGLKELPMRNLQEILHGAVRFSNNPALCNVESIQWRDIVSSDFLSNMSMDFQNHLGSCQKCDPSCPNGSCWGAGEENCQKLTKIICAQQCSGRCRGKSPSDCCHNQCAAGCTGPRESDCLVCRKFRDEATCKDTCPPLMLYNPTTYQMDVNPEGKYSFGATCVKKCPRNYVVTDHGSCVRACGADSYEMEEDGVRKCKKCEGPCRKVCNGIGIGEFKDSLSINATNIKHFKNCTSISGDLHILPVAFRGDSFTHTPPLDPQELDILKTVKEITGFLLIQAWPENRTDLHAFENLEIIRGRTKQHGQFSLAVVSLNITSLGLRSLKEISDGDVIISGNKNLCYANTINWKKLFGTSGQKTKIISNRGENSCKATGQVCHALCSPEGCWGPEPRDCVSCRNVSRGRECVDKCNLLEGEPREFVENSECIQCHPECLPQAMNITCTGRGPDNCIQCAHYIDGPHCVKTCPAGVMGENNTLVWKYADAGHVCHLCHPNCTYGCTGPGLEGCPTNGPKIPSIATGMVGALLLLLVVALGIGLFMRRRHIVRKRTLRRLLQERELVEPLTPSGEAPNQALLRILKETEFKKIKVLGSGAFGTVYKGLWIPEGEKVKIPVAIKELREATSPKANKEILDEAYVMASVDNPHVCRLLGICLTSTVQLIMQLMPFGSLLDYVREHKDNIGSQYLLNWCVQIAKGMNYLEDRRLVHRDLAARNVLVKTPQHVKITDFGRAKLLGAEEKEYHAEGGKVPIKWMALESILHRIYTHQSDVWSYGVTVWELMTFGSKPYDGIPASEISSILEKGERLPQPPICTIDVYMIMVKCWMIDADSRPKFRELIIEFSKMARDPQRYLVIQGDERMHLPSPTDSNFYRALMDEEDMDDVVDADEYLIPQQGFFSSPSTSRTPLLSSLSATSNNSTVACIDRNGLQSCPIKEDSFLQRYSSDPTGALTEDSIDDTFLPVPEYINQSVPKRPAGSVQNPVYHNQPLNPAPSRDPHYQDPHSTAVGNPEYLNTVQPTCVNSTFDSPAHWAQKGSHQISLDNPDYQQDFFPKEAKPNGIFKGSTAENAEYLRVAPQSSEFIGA
For orientation: Time-resolved FRET reads energy transfer from a long-lived donor to a nearby acceptor.

The target in test [2] is EGFR L858R/C797S (Homo sapiens, UniProt P00533, C797S/L858R). In words: Biochemical EGFR kinase assay (Lance Ultra TR-FRET), double mutant L858R/C797S. The gist of the method: as §1
Test [3] deals with EGFR wildtype (Homo sapiens, UniProt P00533). In words: Biochemical EGFR kinase assay (Lance Ultra TR-FRET), wildtype. The gist of the method: as §1
Sequence of EGFR wildtype (P00533 25-1210): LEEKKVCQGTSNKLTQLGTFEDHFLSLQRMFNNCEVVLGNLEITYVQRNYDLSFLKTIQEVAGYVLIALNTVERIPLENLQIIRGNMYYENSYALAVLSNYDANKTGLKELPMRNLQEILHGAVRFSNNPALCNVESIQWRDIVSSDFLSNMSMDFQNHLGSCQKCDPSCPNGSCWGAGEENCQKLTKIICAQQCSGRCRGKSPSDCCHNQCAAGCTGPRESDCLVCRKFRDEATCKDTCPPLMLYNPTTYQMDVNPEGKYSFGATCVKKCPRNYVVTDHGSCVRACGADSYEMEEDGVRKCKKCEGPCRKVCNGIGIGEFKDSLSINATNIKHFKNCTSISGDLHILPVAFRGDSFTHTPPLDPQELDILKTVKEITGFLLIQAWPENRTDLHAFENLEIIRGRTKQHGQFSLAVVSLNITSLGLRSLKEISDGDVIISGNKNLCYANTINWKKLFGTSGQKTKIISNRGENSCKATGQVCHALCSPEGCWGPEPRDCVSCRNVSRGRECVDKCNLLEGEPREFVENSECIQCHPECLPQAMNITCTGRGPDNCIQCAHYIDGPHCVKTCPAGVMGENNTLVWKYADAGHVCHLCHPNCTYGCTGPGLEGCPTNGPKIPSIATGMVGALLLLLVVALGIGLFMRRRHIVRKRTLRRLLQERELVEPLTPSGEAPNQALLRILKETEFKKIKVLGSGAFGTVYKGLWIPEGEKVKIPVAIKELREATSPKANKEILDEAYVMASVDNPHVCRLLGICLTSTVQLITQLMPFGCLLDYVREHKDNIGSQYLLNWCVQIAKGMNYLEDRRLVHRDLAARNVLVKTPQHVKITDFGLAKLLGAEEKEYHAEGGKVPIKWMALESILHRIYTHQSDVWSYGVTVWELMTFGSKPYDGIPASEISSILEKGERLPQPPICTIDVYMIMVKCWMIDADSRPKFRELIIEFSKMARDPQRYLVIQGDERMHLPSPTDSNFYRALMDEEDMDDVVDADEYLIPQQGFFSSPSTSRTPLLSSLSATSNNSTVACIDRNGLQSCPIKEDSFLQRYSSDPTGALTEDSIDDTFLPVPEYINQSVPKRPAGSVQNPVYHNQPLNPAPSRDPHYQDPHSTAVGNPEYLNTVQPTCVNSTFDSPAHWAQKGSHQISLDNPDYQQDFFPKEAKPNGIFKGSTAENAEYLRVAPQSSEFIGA
Test [4] deals with EGFR del19/T790M/C797S (Homo sapiens, UniProt P00533, C797S/DEL746-750/T790M). Description: Biochemical EGFR kinase assay (Lance Ultra TR-FRET), triple mutant del19/T790M/C797S. The gist of the method: as §1
Sequence of EGFR del19/T790M/C797S (P00533 with tags, fused parts or gaps DEL746-750/T790M/C797S): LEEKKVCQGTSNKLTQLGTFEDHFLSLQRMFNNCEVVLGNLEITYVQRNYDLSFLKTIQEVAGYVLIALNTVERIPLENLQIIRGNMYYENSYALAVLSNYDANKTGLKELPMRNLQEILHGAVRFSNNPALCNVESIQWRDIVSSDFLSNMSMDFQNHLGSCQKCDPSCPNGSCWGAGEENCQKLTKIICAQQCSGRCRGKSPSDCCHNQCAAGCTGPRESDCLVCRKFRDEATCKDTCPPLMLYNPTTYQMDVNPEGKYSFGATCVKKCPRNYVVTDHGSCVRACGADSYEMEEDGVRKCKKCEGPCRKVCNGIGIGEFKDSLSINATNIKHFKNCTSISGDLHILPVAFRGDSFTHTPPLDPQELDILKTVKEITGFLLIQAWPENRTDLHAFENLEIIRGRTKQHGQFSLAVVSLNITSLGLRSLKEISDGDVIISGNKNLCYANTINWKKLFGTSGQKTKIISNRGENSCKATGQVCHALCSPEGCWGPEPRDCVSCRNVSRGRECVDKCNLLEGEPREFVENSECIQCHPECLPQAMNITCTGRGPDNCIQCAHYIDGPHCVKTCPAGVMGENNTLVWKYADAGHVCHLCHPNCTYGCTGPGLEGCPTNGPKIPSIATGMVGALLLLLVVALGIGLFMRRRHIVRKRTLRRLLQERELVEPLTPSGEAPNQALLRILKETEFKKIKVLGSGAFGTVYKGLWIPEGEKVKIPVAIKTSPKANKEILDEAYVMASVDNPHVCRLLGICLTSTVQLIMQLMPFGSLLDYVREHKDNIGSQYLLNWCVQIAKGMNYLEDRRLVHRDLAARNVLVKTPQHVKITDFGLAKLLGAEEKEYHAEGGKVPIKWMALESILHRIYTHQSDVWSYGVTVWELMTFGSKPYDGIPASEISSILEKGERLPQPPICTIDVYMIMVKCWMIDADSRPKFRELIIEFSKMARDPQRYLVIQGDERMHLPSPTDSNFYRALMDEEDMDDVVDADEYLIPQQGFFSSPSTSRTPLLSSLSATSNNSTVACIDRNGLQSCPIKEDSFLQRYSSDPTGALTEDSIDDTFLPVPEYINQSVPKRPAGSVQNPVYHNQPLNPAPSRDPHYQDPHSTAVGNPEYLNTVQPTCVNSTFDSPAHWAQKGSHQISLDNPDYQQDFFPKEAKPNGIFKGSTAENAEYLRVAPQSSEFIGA
Test [5] concerns the target EGFR del19/C797S (Homo sapiens, UniProt P00533, C797S/DEL746-750). In words: Biochemical EGFR kinase assay (Lance Ultra TR-FRET), double mutant del19/C797S. Summed up:
as §1

The mark [6] stands for this setting: IC50 L858R/T790M/C797S (nM) 100 μM ATP, 100 μM ATP.
The mark [7] stands for this setting: Km ATP, read-out: IC50 L858R/T790M/C797S (nM) Km ATP.
The mark [8] stands for this setting: IC50 L858R/C797S (nM) 100 μM ATP, 100 μM ATP.
Setting [9] is: Km ATP, read-out: IC50 L858R/C797S (nM) Km ATP.
The mark [10] stands for this setting: IC50 WT (nM) 100 μM ATP, 100 μM ATP.
Where [11] appears, read: Km ATP, read-out: IC50 WT (nM) Km ATP.
Setting [12] is: IC50 del19/T790M/C797S (nM) 100 μM ATP, 100 μM ATP.
Setting [13] is: Km ATP, read-out: IC50 del19/T790M/C797S (nM) Km ATP.
The mark [14] stands for this setting: IC50 del19/C797S (nM) 100 μM ATP, 100 μM ATP.
Where [15] appears, read: Km ATP, read-out: IC50 del19/C797S (nM) Km ATP.

Sequence of EGFR del19/C797S (P00533 with tags, fused parts or gaps DEL746-750/C797S): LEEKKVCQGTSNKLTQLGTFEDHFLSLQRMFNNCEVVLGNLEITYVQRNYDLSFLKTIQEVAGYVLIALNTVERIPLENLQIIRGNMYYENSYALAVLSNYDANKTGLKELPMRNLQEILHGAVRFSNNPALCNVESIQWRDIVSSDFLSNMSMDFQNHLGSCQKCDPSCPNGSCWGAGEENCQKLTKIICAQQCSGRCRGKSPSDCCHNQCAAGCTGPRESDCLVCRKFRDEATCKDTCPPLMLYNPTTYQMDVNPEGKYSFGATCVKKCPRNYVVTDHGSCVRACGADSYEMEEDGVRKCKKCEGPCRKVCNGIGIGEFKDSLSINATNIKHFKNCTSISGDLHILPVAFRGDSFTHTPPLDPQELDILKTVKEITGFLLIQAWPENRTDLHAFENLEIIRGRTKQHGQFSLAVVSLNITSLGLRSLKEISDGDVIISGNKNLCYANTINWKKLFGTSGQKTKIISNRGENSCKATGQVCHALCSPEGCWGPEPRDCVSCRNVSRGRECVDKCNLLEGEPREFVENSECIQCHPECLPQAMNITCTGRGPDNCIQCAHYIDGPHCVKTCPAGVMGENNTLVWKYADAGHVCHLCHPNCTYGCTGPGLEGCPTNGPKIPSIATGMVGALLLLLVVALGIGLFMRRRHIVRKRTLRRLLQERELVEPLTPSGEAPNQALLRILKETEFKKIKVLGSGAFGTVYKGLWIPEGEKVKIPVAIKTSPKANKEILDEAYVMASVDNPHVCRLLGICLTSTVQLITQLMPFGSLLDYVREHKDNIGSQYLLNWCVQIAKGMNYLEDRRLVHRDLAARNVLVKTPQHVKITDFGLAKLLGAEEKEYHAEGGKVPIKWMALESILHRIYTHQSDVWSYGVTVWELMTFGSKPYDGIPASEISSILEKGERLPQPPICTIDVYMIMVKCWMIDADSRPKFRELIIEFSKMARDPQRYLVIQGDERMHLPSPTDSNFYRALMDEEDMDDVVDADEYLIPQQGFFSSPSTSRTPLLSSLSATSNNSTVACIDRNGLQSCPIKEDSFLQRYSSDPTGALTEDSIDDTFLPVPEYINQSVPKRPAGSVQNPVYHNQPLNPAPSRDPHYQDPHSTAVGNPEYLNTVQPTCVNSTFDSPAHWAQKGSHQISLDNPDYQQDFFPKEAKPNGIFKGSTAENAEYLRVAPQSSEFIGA

Turning to `O=S(=O)(C1CC1)n1cc(-c2nccc(Nc3cc(N[C@H]4CC[C@@H](CO)CC4)c(-c4cc(C(F)F)ccn4)cn3)n2)cn1` [Example 77, ((1s,4s)-4-((6′-((2-(1-(Cyclopropylsulfonyl)-1H-pyrazol-4-yl)pyrimidin-4-yl)amino)-4-(difluoromethyl)-[2,3′-bipyridin]-4′-yl)amino)cyclohexyl)methanol], the IC50 in test [1] (setting [6]) is 1.4 nM; in test [1] (setting [7]), 1.1 nM; in test [2] (setting [8]), 13 nM; in test [2] (setting [9]) it was 4.1 nM; in test [3] (setting [10]) it was 1560 nM; in test [3] (setting [11]), 4 nM. The IC50 in test [4] (setting [12]) worked out at 1.7 nM; in test [4] (setting [13]), 2.1 nM; in test [5] (setting [14]) it was 2.3 nM; in test [5] (setting [15]), 2.2 nM.

As for `CC(C)(O)[C@H]1CC[C@@H](Nc2cc(Nc3ccnc(-c4cnn(S(=O)(=O)C5CC5)c4)n3)ncc2-c2cc(C(F)F)ccn2)CC1` [Example 78, 2-((1s,4s)-4-((6′-((2-(1-(Cyclopropylsulfonyl)-1H-pyrazol-4-yl)pyrimidin-4-yl)amino)-4-(difluoromethyl)-[2,3′-bipyridin]-4′-yl)amino)cyclohexyl)propan-2-ol], the IC50 in test [1] (setting [6]) is 5.4 nM; in test [2] (setting [8]) it was 85.5 nM; in test [2] (setting [9]), 16.6 nM; in test [3] (setting [10]), more than 10000 nM; in test [3] (setting [11]), 23.6 nM; in test [4] (setting [12]), 5.5 nM. In addition, the IC50 is 6.8 nM in test [4] (setting [13]), 15.8 nM in test [5] (setting [14]) and 8.8 nM in test [5] (setting [15]).

As to `CN(C)C[C@H]1CC[C@@H](Nc2cc(Nc3ccnc(-c4cnn(S(=O)(=O)C5CC5)c4)n3)ncc2-c2cc(C(F)F)ccn2)CC1` [Example 79, N^6′-(2-(1-(Cyclopropylsulfonyl)-1H-pyrazol-4-yl)pyrimidin-4-yl)-4-(difluoromethyl)-N^4′-((1s,4s)-4-((dimethylamino)methyl)cyclohexyl)-[2,3′-bipyridine]-4′,6′-diamine], the IC50 in test [1] (setting [6]) amounted to 0.5 nM; in test [1] (setting [7]), 0.3 nM; in test [2] (setting [8]), 4.7 nM; in test [2] (setting [9]), 0.7 nM; in test [3] (setting [10]), 450 nM; in test [3] (setting [11]), 1.4 nM. Further, the IC50 worked out at 0.5 nM in test [4] (setting [12]), 0.8 nM in test [4] (setting [13]), 0.6 nM in test [5] (setting [14]) and 0.4 nM in test [5] (setting [15]).

Take `C[C@]1(O)CC[C@@H](Nc2cc(Nc3ccnc(-c4cnn(S(=O)(=O)C5CC5)c4)n3)ncc2-c2ccc(N3CCCC3)cn2)CC1` [Example 80, (1s,4s)-4-((6′-((2-(1-(Cyclopropylsulfonyl)-1H-pyrazol-4-yl)pyrimidin-4-yl)amino)-5-(pyrrolidin-1-yl)-[2,3′-bipyridin]-4′-yl)amino)-1-methylcyclohexan-1-ol]: the IC50 stood at 6.3 nM in test [1] (setting [6]); 2.8 nM in test [1] (setting [7]); 11.1 nM in test [2] (setting [8]); 2.3 nM in test [2] (setting [9]); 4410 nM in test [3] (setting [10]); 11.4 nM in test [3] (setting [11]). Also, the IC50 in test [4] (setting [12]) came out at 6.2 nM; in test [4] (setting [13]), 3.8 nM; in test [5] (setting [14]) it was 8.4 nM; in test [5] (setting [15]) it was 2.5 nM.

Take `O=S(=O)(C1CC1)n1cc(-c2nccc(Nc3cc(N[C@H]4CC[C@@H](CO)CC4)c(-c4ccc(N5CCCC5)cn4)cn3)n2)cn1` [Example 81, ((1s,4s)-4-((6′-((2-(1-(Cyclopropylsulfonyl)-1H-pyrazol-4-yl)pyrimidin-4-yl)amino)-5-(pyrrolidin-1-yl)-[2,3′-bipyridin]-4′-yl)amino)cyclohexyl)methanol]: the IC50 in test [1] (setting [6]) was determined as 6 nM; in test [1] (setting [7]), 2 nM; in test [2] (setting [8]), 13 nM; in test [2] (setting [9]), 3.3 nM; in test [3] (setting [10]), 3650 nM; in test [3] (setting [11]) it was 11.7 nM. In addition, the IC50 was determined as 3.1 nM in test [4] (setting [12]), 2.4 nM in test [4] (setting [13]), 19 nM in test [5] (setting [14]) and 4 nM in test [5] (setting [15]).
